Values joined by “and” are separate entries in the source; they are usually repeats but may differ in a detail not shown here. Equal values may be shown once.
molecular target: SARS-CoV-2 Main Protease (SARS-CoV-2) (UniProt P0DTD1)

SMILES	IC50
O=C(CC1(C(=O)Nc2cncc3ccccc23)CCOc2ccc(Cl)cc21)N1CCCCC1c1nnc[nH]1 (configuration not stated)	0.437 µM
Cc1c(Cl)cc(S(=O)(=O)N2CC=C(c3c[nH]c4ncccc34)CC2)cc1[N+](=O)[O-]	> 99.5 µM
Cn1ccc(CN2Cc3ccc(Cl)cc3C(C(=O)Nc3cncc4ccc(F)cc34)C2)n1 (configuration not stated)	1.35 µM
O=S(=O)(Cc1ccccc1F)c1oc(-c2ccc(F)cc2)nc1S(=O)(=O)c1ccccc1	0.397 µM
O=C(NCCc1cccc(F)c1)C(c1cccnc1)N(C(=O)c1cocn1)C1COc2cc(F)ccc21 (configuration not stated)	> 99.5 µM
O=C(Nc1cncc2ccccc12)C1CN(S(=O)(=O)C2CCOC2)Cc2ccc(Cl)cc21 (configuration not stated)	0.152 µM
O=C(Cc1cc(Cl)cc(Nc2ccc(F)cc2I)c1)Nc1cncc2ccccc12	1.76 µM
O=C(c1ccc2nc(C(F)F)[nH]c2c1)N1CCC(C2CCNC2)CC1 (configuration not stated)	> 99.5 µM
COc1ncc(Nc2cc(Cl)cc(CC(=O)Nc3cncc4ccccc34)c2)cc1Br	1.74 µM
COc1cc2c(cc1Nc1cc(Cl)cc(CC(=O)Nc3cncc4ccccc34)c1)oc1ccccc12	1.87 µM
Cn1c(=O)[nH]c2cncc(NC(=O)C3CCOc4ccc(Cl)cc43)c21 (configuration not stated)	20.7 µM
O=C(Nc1cncc2ccccc12)N1CCOc2ccc(Cl)cc21	11.4 µM
CC(C)(C)c1ccc(N(C(=O)c2cnon2)C(C(=O)NCCc2cccc(F)c2)c2cccnc2)cc1 (configuration not stated)	8.41 µM
O=C(Cc1cc(Cl)cc(NCc2ccc(Cl)c(C(F)(F)F)c2)c1)Nc1cncc2ccccc12	2.98 µM
Cn1nc(C(C(=O)NCCc2cccc(F)c2)N(C(=O)c2ccco2)c2ccc(C(C)(C)C)cc2)c2ccccc21 (configuration not stated)	> 99.5 µM
Cc1nnn(NC(=O)Cc2cccc(Cl)c2)c1C	14.2 µM
CCCNC(=O)CN1CC(C(=O)Nc2cncc3ccccc23)c2cc(Cl)ccc2C1=O (configuration not stated)	0.0864 µM and 0.174 µM
CC(C)(O)c1ccc2cncc(NC(=O)C3CN(S(=O)(=O)CC4(C#N)CC4)Cc4ccc(Cl)cc43)c2c1 (configuration not stated)	1.14 µM
N#CC1(CS(=O)(=O)NCc2ccc(Cl)cc2CC(=O)Nc2cncc3ccccc23)CC1	0.133 µM
CS(=O)(=O)c1ccccc1C(=O)N1CCC(C2CCNC2)CC1 (configuration not stated)	> 99.5 µM
CC(=O)NCCc1c[nH]c2c(CN3CCN(C(=O)CCl)CC3)cccc12	17.4 µM
Cc1cccc(C2CCCCN2C(=O)C(C)c2cncnc2)c1C (configuration not stated)	> 99.5 µM
O=C(Nc1cncc2ccccc12)N(CCC1CCCCC1)c1cccc(Cl)c1	0.261 µM
Cc1ccncc1NC(=O)Cc1cccc(-c2cn[nH]c2)c1	53.2 µM
CS(=O)(=O)c1ccc2cncc(NC(=O)C3CNC(=O)c4c(F)cc(F)cc43)c2c1 (configuration not stated)	3.6 µM

SMILES	IC50
CC(C)(C)c1ccc(N(C(=O)c2cocn2)C(C(=O)NCCc2cccc(F)c2)c2ccc[nH]c2=O)cc1 (configuration not stated)	> 99.5 µM
O=C(Cc1cc(Cl)cc(Nc2cc(C(F)(F)F)ccc2N2CCCC2)c1)Nc1cncc2ccccc12	3.51 µM
O=C(Cc1cc(Cl)cc(NCc2cc(F)ccc2Br)c1)Nc1cncc2ccccc12	1.88 µM
N#Cc1cnn(C(=O)c2cccs2)c1C1CC1	3.24 µM
Cc1cn2c(CNC(=O)c3cnn4ccccc34)c(C)nc2s1	> 99.5 µM
C[C@@]1(C(=O)Nc2cncc3c2CCCC3)CNS(=O)(=O)c2ccc(Cl)cc21 (stereo in doubt)	3.72 µM
CCOC(=O)CNC(=O)C(c1cccnc1)N(C(=O)c1cocn1)c1ccc(C(C)(C)C)cc1 (configuration not stated)	9.53 µM
CNS(=O)(=O)c1cc2c(cc1OCc1ccccc1)OCO2	> 99.5 µM
COCc1ccc2cncc(NC(=O)Cc3cccc(Cl)c3)c2c1	2.21 µM
Cc1nc2cc(C(=O)NNc3ccnc4cccnc34)ccc2o1	> 99.5 µM
O=C(Cc1cc(Cl)cc(Nc2cc(Cl)cc(Cl)c2O)c1)Nc1cncc2ccccc12	9.19 µM
C[C@H]1C[C@@H](C(=O)Nc2cncc3ccccc23)c2cc(Cl)ccc2O1 (stereo in doubt)	20.1 µM
C=CC(=O)N(c1cc(C(C)(C)C)on1)C(C(=O)NCCc1cccc(F)c1)c1cncc(C#N)c1 (configuration not stated)	> 99.5 µM
O=C(Cc1cc(Cl)cc(N[C@H]2C(O)O[C@H](CO)[C@@H](O)[C@@H]2O)c1)Nc1cncc2ccccc12 (stereo in doubt)	2.92 µM
Cc1nn(C)c2nc(Cl)cc(NNC(=O)c3ccnc4[nH]nnc34)c12	> 99.5 µM
O=C(Cc1cc(Cl)cc(Nc2ccn([C@H]3C[C@H](O)[C@@H](CO)O3)c(=O)n2)c1)Nc1cncc2ccccc12 (stereo in doubt)	1.84 µM
CCCCc1nc(-c2nccn2CC(F)(F)F)c[nH]1	23.1 µM
CC(C)(C)c1ccc(N(C(=O)c2cocn2)C(C(=O)NC2CCOCC2)c2cccnc2)cc1 (configuration not stated)	3.9 µM
CC(NC(=O)c1ccc2oc(=S)[nH]c2c1)c1nnc2ccccn12 (configuration not stated)	> 99.5 µM
O=C(Cc1cc(Cl)cc2c1OCC2)Nc1cncc2ccccc12	1.13 µM and 1.87 µM
O=C(NCCc1cccc(F)c1)C(c1cccnc1)N(C(=O)c1cnc[nH]1)c1ccc(C2COC2)cc1 (configuration not stated)	22.7 µM
COc1cc(Br)ccc1Nc1cc(Cl)cc(CC(=O)Nc2cncc3ccccc23)c1	1.39 µM
COc1ccc(N(C(=O)c2ccco2)C(C(=O)NCCc2cccc(F)c2)c2cccnc2)cc1NC(=O)C1CCCCC1 (configuration not stated)	62.7 µM
CN(C)C(=O)CN1CCc2ccc(Cl)cc2C1C(=O)Nc1cncc2ccccc12 (configuration not stated)	1.54 µM
Cc1cc(C(F)(F)F)nc2c1c(N)nn2C(=O)Cc1cccc(Cl)c1	> 99.5 µM

SMILES	IC50
O=C(Cc1cc(Cl)cc(NC2CCN(Cc3ccccc3)CC2)c1)Nc1cncc2ccccc12	5.93 µM
CC(Cc1nc2ccccc2s1)Nc1ccc2nnnn2n1 (configuration not stated)	> 99.5 µM
C#CCCCC(=O)N[C@H](C(=O)N[C@H](CC(C)C)C(=O)NN(CCC(N)=O)C(=O)/C=C/C(=O)OC)C(C)(C)C (stereo in doubt)	< 0.05 µM and 0.044 µM
CS(=O)(=O)Nc1ccc2cncc(NC(=O)C3CCS(=O)(=O)c4ccc(Cl)cc43)c2c1 (configuration not stated)	0.204 µM
O=C(Cc1cc(Cl)cc(Nc2ccc(Br)nc2)c1)Nc1cncc2ccccc12	1.94 µM
Cc1ccc(N(C(=O)c2cocn2)C(C(=O)NCCc2cccc(F)c2)c2cccnc2)cc1 (configuration not stated)	50.2 µM
CC(C)(C)c1ccc(N(C(=O)c2cnc(C(C)(C)CF)o2)C(C(=O)NCCc2cccc(F)c2)c2cccnc2)cc1 (configuration not stated)	> 99.5 µM
CC(C)(C)Oc1ccncc1NC(=O)Cc1cccc(Cl)c1	22.9 µM
O=C(Cc1ccc(Cl)c(Cl)c1)Nc1cncc2ccccc12	0.178 µM and 0.384 µM
N#Cc1ccc(C(=O)N2C[C@@H](F)C[C@H]2CNC(=O)C2CCCC2O)[nH]1 (stereo in doubt)	> 99.5 µM
O=C(Nc1ccc2nncn2c1)c1ccc2scnc2c1	> 99.5 µM
O=C(Cc1nnn2ccccc12)N(Cc1ccccc1)c1ccc(N2CCCCC2)cc1	> 99.5 µM
O=C1CC(NC(=O)Cc2cccc(Cl)c2)C(=O)N1 (configuration not stated)	> 99.5 µM
O=C(Cc1cc(Cl)cc(Nc2cccc(N3CCOCC3)c2)c1)Nc1cncc2ccccc12	2.44 µM
CC1NC(=O)c2ccc(Cl)cc2C1C(=O)Nc1cncc2ccc(S(C)(=O)=O)cc12 (configuration not stated)	1.99 µM
O=C(CN1CC(C(=O)Nc2cncc3ccccc23)c2cc(Cl)ccc2C1=O)NC1CCC1 (configuration not stated)	0.129 µM
O=C(Nc1cncn1-c1cccnc1)C1CCOc2ccc(Cl)cc21 (configuration not stated)	> 99.5 µM
NS(=O)(=O)CCc1ccccc1CN1CCN(C(=O)CCl)CC1	2.72 µM
C=CC(=O)N(c1ccc(C(C)(C)C)cc1)C(C(=O)NC(C)(C)C)c1cncc(Cl)c1 (configuration not stated)	65.6 µM
N#Cc1cc(Cl)ccc1Nc1cc(Cl)cc(CC(=O)Nc2cncc3ccccc23)c1	2.23 µM
CC(C)(C)c1ccc(N(C(=O)c2nc3cnccc3s2)C(C(=O)NCCc2cccc(F)c2)c2cccnc2)cc1 (configuration not stated)	> 99.5 µM
N#CCNC(=O)CN1Cc2ccc(Cl)cc2C2(CCN(c3cncc4ccccc34)C2=O)C1 (configuration not stated)	0.263 µM
O=C(Nc1cncc2ccccc12)c1ccnc2cc(Cl)c(Cl)cc12	28.1 µM
COc1nc2ncc(C(C(=O)NCCc3cccc(F)c3)N(C(=O)c3cocn3)c3ccc(C(C)(C)C)cc3)cn2n1 (configuration not stated)	33.4 µM
N#CC1(CS(=O)(=O)N2Cc3ccc(Cl)cc3C3(CCN(c4cncc5ccccc45)C3=O)C2)CCCC1 (configuration not stated)	0.244 µM

SMILES	IC50
Cc1ccncc1NC(=O)Cc1cc(Cl)cc(CNS(C)(=O)=O)c1	16.6 µM
Cc1cc(Nc2cc(Cl)cc(CC(=O)Nc3cncc4ccccc34)c2)c(Cl)cc1F	2.15 µM
CC(C)(C)c1ccc(N(C(=O)c2cocn2)C(C(=O)NCCc2cccc(F)c2)c2ccnnc2)cc1 (configuration not stated)	2.05 µM
COc1ccccc1CN(C(=O)c1cnc[nH]1)C(C(=O)NCCc1cccc(F)c1)c1cccnc1 (configuration not stated)	> 99 µM
Cc1ccncc1NC(=O)CCc1cccc(F)c1	58.5 µM
O=C(Nc1cncc2ccccc12)[C@@H]1CN(S(=O)(=O)CC2CS(=O)(=O)C2)Cc2ccc(Cl)cc21 (stereo in doubt)	8.23 µM
O=C(Cc1cc(Cl)cc(N[C@H](c2ccccc2)[C@@H](O)c2ccccc2)c1)Nc1cncc2ccccc12 (stereo in doubt)	2.24 µM
CCC(=O)Nc1ccc(N(Cc2ccccc2)C(=O)n2nnc3ccccc32)cc1	> 99.5 µM
O=C1NC[C@H](C(=O)Nc2cncc3ccccc23)c2cc(Cl)ccc21 (stereo in doubt)	0.185 µM
O=C(Cn1cn[nH]c1=O)NC1CCCCCC1c1ccccc1C(F)(F)F (configuration not stated)	> 99.5 µM
C=CC(=O)N(c1ccc(C(C)(C)C)cc1)C(C(=O)Nc1ccc(OC)cc1C)c1cccnc1 (configuration not stated)	> 99 µM
Cc1ccc(S(=O)(=O)CNC(=O)C(c2cccnc2)N(C(=O)c2cocn2)c2ccc(C(C)(C)C)cc2)cc1 (configuration not stated)	62.9 µM
CN(C)S(=O)(=O)c1cccc(C(=O)Nc2c(-c3ccccc3)nc3sccn23)c1	0.975 µM
CCc1cc(Br)ccc1Nc1cc(Cl)cc(CC(=O)Nc2cncc3ccccc23)c1	3.15 µM
O=C(NCCc1cccc(F)c1)C(c1cccnc1)N(C(=O)c1cocn1)C1COC2(CCCC2)C1 (configuration not stated)	> 99.5 µM
Cc1ccncc1OCCNC(=O)C(C)(C)c1cccc(Cl)c1	> 99.5 µM
Cn1c(C(=O)N(c2ccc(C(C)(C)C)cc2)C(C(=O)NCCc2cccc(F)c2)c2cccnc2)c[nH]c1=O (configuration not stated)	> 99.5 µM
O=C(Nc1ccc2c(=O)cc[nH]c2c1)c1ccc2ccncc2c1	> 99.5 µM
O=C(Cc1cccc(Cl)c1)Nn1cnc2ccccc2c1=O	8.65 µM
N#CC1(CS(=O)(=O)N2Cc3ccc(Cl)cc3C3(CCN(c4cncc5ccc(Cl)cc45)C3=O)C2)CC1 (configuration not stated)	0.82 µM
C=CC(=O)N(c1ccc(C(C)(C)C)cc1)C(C(=O)NC(C)(C)C)c1cccnc1 (configuration not stated)	> 99 µM
O=C(NNC(=O)c1cccc(-n2nccc2C(F)(F)F)c1)OCc1ccccc1	> 99.5 µM
